US12616750B2, “Combination therapy utilizing DNA alkylating agents and ATR inhibitors” (Merck Patent GmbH, priority 2018, dated 2026)
Read-outs that look alike come from different tables or passages of the source.

Legend:
NEK1 = target: T1, NEK1 (Homo sapiens, UniProt Q96PY6); conditions: cited from earlier work
T1 sequence (Q96PY6 1-1258): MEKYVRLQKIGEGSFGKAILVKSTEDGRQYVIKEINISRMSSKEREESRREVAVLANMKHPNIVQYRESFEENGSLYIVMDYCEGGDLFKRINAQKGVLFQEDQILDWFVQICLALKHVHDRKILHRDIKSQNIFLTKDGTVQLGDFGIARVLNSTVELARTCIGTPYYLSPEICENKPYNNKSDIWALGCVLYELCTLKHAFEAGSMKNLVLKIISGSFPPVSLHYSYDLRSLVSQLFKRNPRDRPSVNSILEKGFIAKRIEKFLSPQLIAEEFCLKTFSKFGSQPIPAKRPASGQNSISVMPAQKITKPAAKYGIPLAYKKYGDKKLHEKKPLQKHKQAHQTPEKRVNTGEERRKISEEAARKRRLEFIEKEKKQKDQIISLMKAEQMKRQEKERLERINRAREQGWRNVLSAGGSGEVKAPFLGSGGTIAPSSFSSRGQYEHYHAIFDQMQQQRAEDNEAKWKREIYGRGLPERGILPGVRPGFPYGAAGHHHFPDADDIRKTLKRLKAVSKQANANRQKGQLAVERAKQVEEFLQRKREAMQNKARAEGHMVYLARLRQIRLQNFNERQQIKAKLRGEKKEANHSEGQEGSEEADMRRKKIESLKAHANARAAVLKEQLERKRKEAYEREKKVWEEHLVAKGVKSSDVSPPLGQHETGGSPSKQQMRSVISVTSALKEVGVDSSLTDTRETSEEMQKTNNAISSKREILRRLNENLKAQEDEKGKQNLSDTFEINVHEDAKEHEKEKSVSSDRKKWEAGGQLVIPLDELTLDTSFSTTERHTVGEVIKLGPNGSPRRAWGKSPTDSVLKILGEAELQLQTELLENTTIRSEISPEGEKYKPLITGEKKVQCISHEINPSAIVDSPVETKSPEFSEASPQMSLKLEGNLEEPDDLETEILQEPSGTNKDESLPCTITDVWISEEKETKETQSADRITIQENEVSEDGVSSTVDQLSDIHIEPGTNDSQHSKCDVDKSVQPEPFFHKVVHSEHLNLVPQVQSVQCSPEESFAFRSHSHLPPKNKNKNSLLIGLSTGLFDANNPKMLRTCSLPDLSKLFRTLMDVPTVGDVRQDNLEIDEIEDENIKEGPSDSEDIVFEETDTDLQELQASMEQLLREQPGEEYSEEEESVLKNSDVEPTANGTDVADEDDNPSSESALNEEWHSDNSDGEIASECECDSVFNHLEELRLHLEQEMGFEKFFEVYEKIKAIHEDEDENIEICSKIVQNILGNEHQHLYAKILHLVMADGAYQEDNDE

HCC-1954 cells [1] = assay: Dose-matrix combination assay (synergy score, Loewe model); format: cell-based
Method: (§1) Dose-matrix combination assays were performed as described above, but performed in opague 384-well plates (2k viable cells/well). Compounds were added using Tecan D300e liquid. Protein solutions were supplemented with 0.3% Tween-20 (final) and diluted to 1 μM. All wells were normalized to the maximum amount of DMSO (maximum 0.4%) or Tween-20 added. […] Luminescence values were normalized to luminescence of non-treated cells and dose-response was fitted using Smart Fit. Synergy scores were calculated using LOEWE synergy model.
(§2) The screening of synergistic drug combinations can be accomplished by performing a dose-matrix assay. Therefore, two drugs are serial diluted and mixed at every dose level, yielding a dose-matrix. The drug combination can be additive if the effects of the combination are identical to the added effects of the single agents. However, the effects of the combination might also be stronger than the activity of the single agents. This scenario is termed synergy, whereas weaker combination effects compared to the single agents are termed antagonism. A dose-matrix assay is depicted schematically in FIG. 2 which illustrates the outcomes of a dose-matrix assay: additivity, antagonism and synergy.
(§3) The screening was conducted by serial diluting the duocarmycin derivative DUBA (10) and the DDR inhibitors. […] DUBA was combined in a dose-matrix assay with hycanthone. The cell viability was measured after 6 d of treatment using the CellTiter-Glo assay kit. The signals of the cell viability assay were normalized to untreated cells and fitted. […] By subtracting the modeled data from the fitted data, an excess matrix was generated. The excess matrix can be considered as a visualization of the differences between model and actual data which also highlights spots of either high synergy or antagonism. The quantification of the combination effects, however, was performed by calculating synergy scores. […] Besides synergy score, the potency of the drugs in monotherapy was obtained from these experiments. […] The potency was obtained from this dose-response curve.
(§4) The scattering of S was determined in a sham control experiment to define a cutoff for classifying a combination as truly synergistic or antagonistic. Thus seven different compounds were combined with itself on four different cell lines and the three-σ confidence interval was calculated around the mean of the measurement. […] For the sake of convenience, the cutoff was set to a value of ±1.
(§5) Synergy scores (S) were obtained from the combination experiments that indicated additivity […] if model and actual response were equal. […] The magnitude of the score determined the extent of the combination effects.

MDA-MB-468 cells [2] = assay: as above; format: cell-based; conditions: combination with DUBA; MDA-MB-468, 6 d; S ± SD; cutoff ±1
Method: as §1, §2, §3, §4, §5

HCC-1954 cells [3] = assay: Cytotoxicity (cell viability, CellTiter-Glo, 6 d); format: cell-based; conditions: Homo sapiens, HCC1954, HCC-1954
Method: as §1
After 6 d of treatment, CellTiter-Glo luminescent assay was performed and the luminescence was read on Envision Reader. The results were analyzed using GeneData Screener as described before.

MDA-MB-453 cells = assay: MNED curve-shift assay; format: cell-based
Description: (§6) Therefore a curve-shift assay system was established. In a first step, a dose-response curve (DRC) is obtained by treating a certain cell line with an inhibitor. The maximum non-efficacious dose (MNED) can be derived from this DRC. MNED is the highest dose, that can be added to a certain cell line without affecting the viability. The activity of the ADC is confirmed in a separate experiment. Finally, a combination experiment can be conducted. Therefore, the ADC and ADC plus inhibitor at MNED are added to the cells. The inhibitor is tested in parallel at MNED as a control. Due to the application of inhibitor at MNED, no reduction in cell viability caused by the inhibitor is expected. Three outcomes are possible: 1) The combination of ADC plus inhibitor is equipotent as the ADC only. […] Such a result would be interpreted as depotentiation. […] In this case, the potency of the ADC is potentiated.
(§7) Potentiation effects are expressed as dose-reduction indices (DRI), which can be calculated by dividing the IC50-value of ADC by the IC50-value of ADC plus inhibitor according to eq. 1
(§8) Curve-shift assays were conducted as follows: The cell number and viability was determined using ViCell™-XR (Beckman Coulter) and seeded in opague 96-well plate (10k viable cells/well). After seeding, the plate was incubated (37° C., 5% C02) in a humid chamber overnight. Compounds were diluted in the appropriate medium, added to the cells and the plate was incubated (37° C., 5% CO2, 6 d) in a humid chamber. After 30 min equilibration at room temperature, CellTiter-Glo reagent (Promega) was added. After the plate was shaken (3 min, 550 rpm, rt) it was incubated (10 min, rt) and luminescence was read on a synergy 4 plate reader (BioTek). Evaluation was performed using GraphPad Prism version 6.05. Therefor luminescence values were normalized to luminescence values of non-treated cells and dose-response was fitted with 4-point logistic fit.
(§9) The determination of dose-reduction indices (DRI) in a maximum non-efficacious dose (MNED) curve-shift assay is a 3-step process as depicted exemplarily in FIG. 13. The cytotoxicity of the ADC is confirmed in a cell viability assay in an initial step. […] In the second step. the MNED of the ATRi was determined. […] In order to obtain a full […] for the combination, the starting concentration of the ADC was lowered compared to the experiment in step 1.

Calu-3 cells = assay: MNED curve-shift assay; format: cell-based
Description: as §6, §7, §8, §9

SK-BR-3 cells = assay: MNED curve-shift assay; format: cell-based
Description: as §6, §7, §8, §9

BT-474 cells = assay: MNED curve-shift assay; format: cell-based
Description: as §6, §7, §8, §9

HCC-1954 cells [4] = assay: MNED curve-shift assay; format: cell-based; conditions: HCC-1954
Description: as §6, §7, §8, §9

MDA-MB-468 cells [5] = assay: MNED curve-shift assay; format: cell-based
Description: as §6, §7, §8, §9

JIMT-1 cells = assay: MNED curve-shift assay; format: cell-based
Description: as §6, §7, §8, §9

SK-OV-3 cells = assay: MNED curve-shift assay; format: cell-based
Description: as §6, §7, §8, §9

MDA-MB-468 cells [6] = assay: Cytotoxicity (cell viability, CellTiter-Glo, 6 d); format: cell-based; conditions: Homo sapiens, MDA-MB-468; read-out: IC50
A549 cells = assay: Dose-matrix combination assay (synergy score, Loewe model); format: cell-based; conditions: combination with AZD6738; A549 (EGFR-positive), 6 d
Method: (§10) Dose-matrix combination assays were performed as described above, but performed in opague 384-well plates (2k viable cells/well). Compounds were added using Tecan D300e liquid. Protein solutions were supplemented with 0.3% Tween-20 (final) and diluted to 1 μM. All wells were normalized to the maximum amount of DMSO (maximum 0.4%) or Tween-20 added. Read out of luminescence was performed on Envision 2104 Multilabel Reader (Perkin Elmer) and data were evaluated using Genedata Screener® version 14.0.6-Standard (Genedata AG). Luminescence values were normalized to luminescence of non-treated cells and dose-response was fitted using Smart Fit. Synergy scores were calculated using LOEWE synergy model.
as §2

MCF7 cells = assay: Cytotoxicity (cell viability); format: cell-based; conditions: Homo sapiens; MCF7 (EGFR −, MET −), Table 10
Method: as §8, §10

[7] = combination with DUBA, HCC-1954, 6 d, S ± SD, cutoff ±1

Compound	potency of NEK1 inhibition (NEK1) [nM]	Synergy score S (HCC-1954 cells [1]; [7])	Synergy score S (MDA-MB-468 cells [2])	IC50 (HCC-1954 cells [3]; ATRi alone, mean ± SD, read-out: Cytotoxicity IC50) [nM]	Synergy score S (HCC-1954 cells [1]; combination with ADC αHER2-2, HCC-1954)	MNED (maximum non-efficacious dose) (MDA-MB-453 cells) [nM]	MNED (maximum non-efficacious dose) (Calu-3 cells) [nM]	MNED (maximum non-efficacious dose) (SK-BR-3 cells) [nM]	MNED (maximum non-efficacious dose) (BT-474 cells) [nM]	MNED (maximum non-efficacious dose) (HCC-1954 cells [4]) [nM]	MNED (maximum non-efficacious dose) (MDA-MB-468 cells [5]) [nM]	MNED (maximum non-efficacious dose) (JIMT-1 cells) [nM]	MNED (maximum non-efficacious dose) (SK-OV-3 cells) [nM]	IC50 (HCC-1954 cells [3]; duocarmycin variant alone, mean ± SD or mean (individual values), read-out: IC50) [nM]	IC50 (MDA-MB-468 cells [6]) [nM]	Synergy score S (A549 cells)	IC50 (MCF7 cells) [nM]	Synergy score S (HCC-1954 cells [1]; combination with AZD6738, HCC-1954, 6 d)	Synergy score S (HCC-1954 cells [1]; combination with AZD6738, HCC-1954, 6 d, listed as DSA (13))
COc1cc(-c2cnc(N)c(N3CC[C@@H](C(=O)O)[C@@H](C)[C@H]3C)n2)cc(OC)c1OC [Cmpd31]	170	0.3±0.1	0.4±0.2	–	–	–	–	–	–	–	–	–	–	–	–	–	–	–	–
CNCc1ccc(-c2cc(-c3nc(-c4ccc(S(=O)(=O)C(C)C)cc4)cnc3N)on2)cc1 [VE-822]	–	5.3±0.6	–	900 ± 400	5.7±0.3	40	80	125	1000	250	300	80	125	–	–	–	–	–	–
COC(=O)c1cc2c3c(cc(O)c2[nH]1)N(C(=O)c1cc2cc(OC)c(OC)c(OC)c2[nH]1)C[C@H]3CCl [compound 13]	–	–	–	–	–	–	–	–	–	–	–	–	–	0.3 ± 0.1	0.14 ± 0.07	additive effects	0.06 ± 0.02	4.1 ± 0.4	4.1±0.4
